From patent publication US6355799B1, “Substituted benzene compounds, process for their preparation, and herbicidal and defoliant compositions containing them” (ISK Americas Incorporated, priority 1997, dated 2002)

How the values were obtained:
Format in all cases: in vivo
[1] = tested on: redroot pigweed (Amaranthus retroflexus, AMARE); experiment: Pre-emerge test, greenhouse herbicide activity screening; details: pre-emerge, 14 days after application, rating scale 0-100
In short: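 Plants grown in 10 cm pots of sandy loam mix received acetone-dissolved compounds through a moving flat-fan nozzle. Doses ranged from 15 to 1000 g ai/ha. Pre-emerge pots were seeded one day earlier, post-emerge pots 8–21 days earlier. Fourteen days on, each pot was graded 0–100 for damage.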

[2] = tested on: field corn (Zea mays L., var. Dekalb 535, CORN); experiment: Post-emerge test, crop safety; details: post-emerge, 14 days after application, rating scale 0-100
In short: (§1)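 Herbicidal damage is scored 0 (none) to 100 (complete plant death) two weeks after a simulated field spray. Rates span 15–1000 g ai/ha, delivered in acetone at 187 l/ha. For post-emergence treatments, plants have 2–3 leaves and the spray carries 0.25% v/v non-ionic surfactant.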

[3] = tested on: upland rice (Oryza sp., var. Tebonnet, RICE); experiment: Post-emerge test, crop safety; details: post-emerge, 14 days after application, rating scale 0-100
In short: as §1

[4] = tested on: green foxtail (Setaria viridis, SETVI); experiment: Pre-emerge test, greenhouse herbicide activity screening; details: pre-emerge, 14 days after application, rating scale 0-100
In short: as §1

[5] = tested on: ivyleaf morningglory (Ipomoea hederacea, IPOHE); experiment: as above; details: pre-emerge, 14 days after application, rating scale 0-100
In short: as §1

[6] = tested on: barnyardgrass (Echinochloa crus-galli, ECHCG); experiment: as above; details: pre-emerge, 14 days after application, rating scale 0-100
In short: as §1

[7] = tested on: sicklepod (Cassia obtusifolia, CASOB); experiment: as above; details: pre-emerge, 14 days after application, rating scale 0-100
In short: as §1

[8] = tested on: lambsquarters (Chenopodium album, CHEAL); experiment: as above; details: pre-emerge, 14 days after application, rating scale 0-100
In short: as §1

[9] = tested on: large crabgrass (Digitaria sanguinalis, DIGSA); experiment: as above; details: pre-emerge, 14 days after application, rating scale 0-100
In short: as §1

[10] = tested on: velvetleaf (Abutilon theophrasti, ABUTH); experiment: as above; details: pre-emerge, 14 days after application, rating scale 0-100
In short: as §1

[11] = tested on: redroot pigweed (Amaranthus retroflexus, AMARE); experiment: Post-emerge test, greenhouse herbicide activity screening; details: post-emerge, 14 days after application
In short: (§2)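 Visual ratings on a 0-100 scale (0 no damage, 100 all plants dead) were taken at 14 days after treatment. Rates of 15-1000 g ai/ha in acetone, 187 l/ha, were sprayed onto soil one day after planting (pre-emerge) or onto 2-3 leaf plants with 0.25% v/v surfactant (post-emerge).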

[12] = tested on: green foxtail (Setaria viridis, SETVI); experiment: as above; details: post-emerge, 14 days after application, rating scale 0-100
In short: as §2

[13] = tested on: ivyleaf morningglory (Ipomoea hederacea, IPOHE); experiment: as above; details: post-emerge, 14 days after application, rating scale 0-100
In short: as §2

[14] = tested on: barnyardgrass (Echinochloa crus-galli, ECHCG); experiment: as above; details: post-emerge, 14 days after application, rating scale 0-100
In short: as §2

[15] = tested on: sicklepod (Cassia obtusifolia, CASOB); experiment: as above; details: post-emerge, 14 days after application, rating scale 0-100
In short: as §2

[16] = tested on: lambsquarters (Chenopodium album, CHEAL); experiment: as above; details: post-emerge, 14 days after application, rating scale 0-100
In short: as §2

[17] = tested on: large crabgrass (Digitaria sanguinalis, DIGSA); experiment: as above; details: post-emerge, 14 days after application, rating scale 0-100
In short: as §2

[18] = tested on: velvetleaf (Abutilon theophrasti, ABUTH); experiment: as above; details: post-emerge, 14 days after application, rating scale 0-100
In short: as §2

[19] = tested on: field corn (Zea mays L., var. Dekalb 535, CORN); experiment: Pre-emerge test, crop safety; details: pre-emerge, 14 days after application, rating scale 0-100
In short: as §1

[20] = tested on: upland rice (Oryza sp., var. Tebonnet, RICE); experiment: Pre-emerge test, crop safety; details: pre-emerge, 14 days after application, rating scale 0-100
In short: as §1

[21] = 63 g ai/ha, rating scale 0-100 (0 no damage, 100 complete death)
[22] = 250 g ai/ha, rating scale 0-100

Compound | phytotoxicity rating AMARE ([1]; 63 g ai/ha) | phytotoxicity rating AMARE ([1]; 250 g ai/ha) | Post-emerge Herbicidal Activity CORN (crop damage rating) ([2]; 63 g ai/ha) | Post-emerge Herbicidal Activity CORN (crop damage rating) ([2]; 250 g ai/ha) | Post-emerge Herbicidal Activity RICE (crop damage rating) ([3]; 63 g ai/ha) | Post-emerge Herbicidal Activity RICE (crop damage rating) ([3]; 250 g ai/ha) | phytotoxicity rating SETVI ([4]; 63 g ai/ha) | phytotoxicity rating SETVI ([4]; 250 g ai/ha) | phytotoxicity rating IPOHE ([5]; 63 g ai/ha) | phytotoxicity rating IPOHE ([5]; 250 g ai/ha) | phytotoxicity rating ECHCG ([6]; 63 g ai/ha) | phytotoxicity rating ECHCG ([6]; 250 g ai/ha) | phytotoxicity rating CASOB ([7]; 63 g ai/ha) | phytotoxicity rating CASOB ([7]; 250 g ai/ha) | phytotoxicity rating CHEAL ([8]; 63 g ai/ha) | phytotoxicity rating CHEAL ([8]; 250 g ai/ha) | phytotoxicity rating DIGSA ([9]; 63 g ai/ha) | phytotoxicity rating DIGSA ([9]; 250 g ai/ha) | phytotoxicity rating ABUTH ([10]; 63 g ai/ha) | phytotoxicity rating ABUTH ([10]; 250 g ai/ha) | further results
COc1c(Cl)cc(F)c(-n2c(=O)cc(C(F)(F)F)n(C)c2=O)c1NNC(=O)c1ccc2ccccc2c1 [15-5] | 100 | 100 | 70 | 90 | 60 | 90 | 100 | 100 | 100 | 100 | 70 | 99 | 100 | 100 | 100 | 100 | 100 | 100 | 100 | 100 | Post-emerge Herbicidal Activity AMARE (phytotoxicity rating) [11, 21]: 70; Post-emerge Herbicidal Activity AMARE (phytotoxicity rating) [11, 22]: 100; Post-emerge Herbicidal Activity SETVI (phytotoxicity rating) ([12]; 63 g ai/ha): 40; Post-emerge Herbicidal Activity SETVI (phytotoxicity rating) ([12]; 250 g ai/ha): 80; Post-emerge Herbicidal Activity IPOHE (phytotoxicity rating) ([13]; 63 g ai/ha): 90; Post-emerge Herbicidal Activity IPOHE (phytotoxicity rating) ([13]; 250 g ai/ha): 100; Post-emerge Herbicidal Activity ECHCG (phytotoxicity rating) ([14]; 63 g ai/ha): 40; Post-emerge Herbicidal Activity ECHCG (phytotoxicity rating) ([14]; 250 g ai/ha): 90; Post-emerge Herbicidal Activity CASOB (phytotoxicity rating) ([15]; 63 g ai/ha): 40; Post-emerge Herbicidal Activity CASOB (phytotoxicity rating) ([15]; 250 g ai/ha): 80; Post-emerge Herbicidal Activity CHEAL (phytotoxicity rating) ([16]; 63 g ai/ha): 100; Post-emerge Herbicidal Activity CHEAL (phytotoxicity rating) ([16]; 250 g ai/ha): 100; Post-emerge Herbicidal Activity DIGSA (phytotoxicity rating) ([17]; 63 g ai/ha): 30; Post-emerge Herbicidal Activity DIGSA (phytotoxicity rating) ([17]; 250 g ai/ha): 70; Post-emerge Herbicidal Activity ABUTH (phytotoxicity rating) ([18]; 63 g ai/ha): 100; Post-emerge Herbicidal Activity ABUTH (phytotoxicity rating) ([18]; 250 g ai/ha): 100; phytotoxicity rating CORN ([19]; 63 g ai/ha): 80; phytotoxicity rating CORN ([19]; 250 g ai/ha): 99; phytotoxicity rating RICE ([20]; 63 g ai/ha): 70; phytotoxicity rating RICE ([20]; 250 g ai/ha): 99
COc1c(Cl)cc(F)c(-n2c(=O)cc(C(F)(F)F)n(C)c2=O)c1NNC(=O)Nc1ccc(F)cc1F [15-8] | 60 | 100 | 0 | 55 | 10 | 60 | 20 | 0 | 0 | 70 | 0 | 40 | 20 | 80 | 60 | 100 | 30 | 100 | 40 | 100 | Post-emerge Herbicidal Activity AMARE (phytotoxicity rating) [11, 21]: 20; Post-emerge Herbicidal Activity AMARE (phytotoxicity rating) [11, 22]: 60; Post-emerge Herbicidal Activity SETVI (phytotoxicity rating) ([12]; 63 g ai/ha): 0; Post-emerge Herbicidal Activity SETVI (phytotoxicity rating) ([12]; 250 g ai/ha): 30; Post-emerge Herbicidal Activity IPOHE (phytotoxicity rating) ([13]; 63 g ai/ha): 50; Post-emerge Herbicidal Activity IPOHE (phytotoxicity rating) ([13]; 250 g ai/ha): 90; Post-emerge Herbicidal Activity ECHCG (phytotoxicity rating) ([14]; 63 g ai/ha): 0; Post-emerge Herbicidal Activity ECHCG (phytotoxicity rating) ([14]; 250 g ai/ha): 20; Post-emerge Herbicidal Activity CASOB (phytotoxicity rating) ([15]; 63 g ai/ha): 0; Post-emerge Herbicidal Activity CASOB (phytotoxicity rating) ([15]; 250 g ai/ha): 40; Post-emerge Herbicidal Activity CHEAL (phytotoxicity rating) ([16]; 63 g ai/ha): 95; Post-emerge Herbicidal Activity CHEAL (phytotoxicity rating) ([16]; 250 g ai/ha): 90; Post-emerge Herbicidal Activity DIGSA (phytotoxicity rating) ([17]; 63 g ai/ha): 0; Post-emerge Herbicidal Activity DIGSA (phytotoxicity rating) ([17]; 250 g ai/ha): 0; Post-emerge Herbicidal Activity ABUTH (phytotoxicity rating) ([18]; 63 g ai/ha): 70; Post-emerge Herbicidal Activity ABUTH (phytotoxicity rating) ([18]; 250 g ai/ha): 100; phytotoxicity rating CORN ([19]; 63 g ai/ha): 0; phytotoxicity rating CORN ([19]; 250 g ai/ha): 90; phytotoxicity rating RICE ([20]; 63 g ai/ha): 15; phytotoxicity rating RICE ([20]; 250 g ai/ha): 90
COc1c(Cl)cc(F)c(-n2c(=O)cc(C(F)(F)F)n(C)c2=O)c1NN=Cc1ccc(F)cc1F [15-20] | 100 | 100 | 40 | 85 | 35 | 80 | 100 | 100 | 80 | 80 | 50 | 100 | 60 | 100 | 100 | 100 | 100 | 100 | 100 | 100 | Post-emerge Herbicidal Activity AMARE (phytotoxicity rating) [11, 21]: 100; Post-emerge Herbicidal Activity AMARE (phytotoxicity rating) [11, 22]: 100; Post-emerge Herbicidal Activity SETVI (phytotoxicity rating) ([12]; 63 g ai/ha): 80; Post-emerge Herbicidal Activity SETVI (phytotoxicity rating) ([12]; 250 g ai/ha): 100; Post-emerge Herbicidal Activity IPOHE (phytotoxicity rating) ([13]; 63 g ai/ha): 100; Post-emerge Herbicidal Activity IPOHE (phytotoxicity rating) ([13]; 250 g ai/ha): 100; Post-emerge Herbicidal Activity ECHCG (phytotoxicity rating) ([14]; 63 g ai/ha): 50; Post-emerge Herbicidal Activity ECHCG (phytotoxicity rating) ([14]; 250 g ai/ha): 100; Post-emerge Herbicidal Activity CASOB (phytotoxicity rating) ([15]; 63 g ai/ha): 80; Post-emerge Herbicidal Activity CASOB (phytotoxicity rating) ([15]; 250 g ai/ha): 100; Post-emerge Herbicidal Activity CHEAL (phytotoxicity rating) ([16]; 63 g ai/ha): 100; Post-emerge Herbicidal Activity CHEAL (phytotoxicity rating) ([16]; 250 g ai/ha): 100; Post-emerge Herbicidal Activity DIGSA (phytotoxicity rating) ([17]; 63 g ai/ha): 30; Post-emerge Herbicidal Activity DIGSA (phytotoxicity rating) ([17]; 250 g ai/ha): 90; Post-emerge Herbicidal Activity ABUTH (phytotoxicity rating) ([18]; 63 g ai/ha): 100; Post-emerge Herbicidal Activity ABUTH (phytotoxicity rating) ([18]; 250 g ai/ha): 100; phytotoxicity rating CORN ([19]; 63 g ai/ha): 65; phytotoxicity rating CORN ([19]; 250 g ai/ha): 95; phytotoxicity rating RICE ([20]; 63 g ai/ha): 70; phytotoxicity rating RICE ([20]; 250 g ai/ha): 100
